# Experimental data: PubChem BioAssay (NCI)
#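 Interpolation was linear, between the two tested concentrations surrounding the appropriate level; five concentrations were tested over 48 hours in 96-well plates. TGI marks complete inhibition of growth.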
# How the values were obtained:
# Assay in all cases: NCI-60 cell line screen, 48 h
# OVCAR-5 ovarian = test system: OVCAR-5 ovarian
# UO-31 renal = test system: UO-31 renal
# M14 melanoma = test system: M14 melanoma
# T-47D breast = test system: T-47D breast
# HCC-2998 colon = test system: HCC-2998 colon
# SF-295 CNS = test system: SF-295 CNS
# IGROV1 ovarian = test system: IGROV1 ovarian
# 786-0 renal = test system: 786-0 renal
# SK-MEL-28 melanoma = test system: SK-MEL-28 melanoma
# BT-549 breast = test system: BT-549 breast
# DU-145 prostate = test system: DU-145 prostate
# KM12 colon = test system: KM12 colon
# SW-620 colon = test system: SW-620 colon
# SF-539 CNS = test system: SF-539 CNS
# LOX IMVI melanoma = test system: LOX IMVI melanoma
# UACC-62 melanoma = test system: UACC-62 melanoma
# COLO 205 colon = test system: COLO 205 colon
# SNB-75 CNS = test system: SNB-75 CNS
# UACC-257 melanoma = test system: UACC-257 melanoma
# CCRF-CEM leukemia = test system: CCRF-CEM leukemia
# HOP-62 NSCLC = test system: HOP-62 NSCLC
# K-562 leukemia = test system: K-562 leukemia
# PC-3 prostate = test system: PC-3 prostate
# A498 renal = test system: A498 renal
# MCF7 breast = test system: MCF7 breast
# SK-MEL-2 melanoma = test system: SK-MEL-2 melanoma
# RPMI-8226 leukemia = test system: RPMI-8226 leukemia
# HT29 colon = test system: HT29 colon
# HS 578T breast = test system: HS 578T breast
# EKVX NSCLC = test system: EKVX NSCLC
# HOP-92 NSCLC = test system: HOP-92 NSCLC
# OVCAR-4 ovarian = test system: OVCAR-4 ovarian
# OVCAR-8 ovarian = test system: OVCAR-8 ovarian
# NCI-H23 lung = test system: NCI-H23 lung
# MDA-MB-231 breast = test system: MDA-MB-231 breast
# A549 NSCLC = test system: A549 NSCLC
# OVCAR-3 ovarian = test system: OVCAR-3 ovarian
# NCI-H522 lung = test system: NCI-H522 lung
# HCT-116 colon = test system: HCT-116 colon
# NCI-H226 lung = test system: NCI-H226 lung
# HCT-15 colon = test system: HCT-15 colon
# MDA-MB-435 = test system: MDA-MB-435
# NCI-H460 lung = test system: NCI-H460 lung
# ACHN renal = test system: ACHN renal
# NCI/ADR-RES ovarian = test system: NCI/ADR-RES ovarian
# SNB-19 CNS = test system: SNB-19 CNS
# MALME-3M melanoma = test system: MALME-3M melanoma
# SK-OV-3 ovarian = test system: SK-OV-3 ovarian
# CAKI-1 renal = test system: CAKI-1 renal
# SN12C renal = test system: SN12C renal
# SK-MEL-5 melanoma = test system: SK-MEL-5 melanoma
# SF-268 CNS = test system: SF-268 CNS
# TK-10 renal = test system: TK-10 renal
compound,measurement,setting,value
O=C(/C=C/c1ccc(Cl)cc1)c1nc2ccccc2[nH]1,TGI,OVCAR-5 ovarian,> 100 µM
same,TGI,UO-31 renal,24 µM
same,TGI,M14 melanoma,> 100 µM
same,TGI,T-47D breast,38.9 µM
same,TGI,HCC-2998 colon,25.8 µM
same,TGI,SF-295 CNS,> 100 µM
same,TGI,IGROV1 ovarian,> 100 µM
same,TGI,786-0 renal,29.6 µM
same,TGI,SK-MEL-28 melanoma,> 100 µM
same,TGI,BT-549 breast,> 100 µM
same,TGI,DU-145 prostate,33.1 µM
same,TGI,KM12 colon,13.3 µM
same,TGI,SW-620 colon,53.1 µM
same,TGI,SF-539 CNS,50.6 µM
same,TGI,LOX IMVI melanoma,32.6 µM
same,TGI,UACC-62 melanoma,> 100 µM
same,TGI,COLO 205 colon,50.4 µM
same,TGI,SNB-75 CNS,43.8 µM
same,TGI,UACC-257 melanoma,> 100 µM
same,TGI,CCRF-CEM leukemia,16.6 µM
same,TGI,HOP-62 NSCLC,50.1 µM
same,TGI,K-562 leukemia,30.7 µM
same,TGI,PC-3 prostate,> 100 µM
same,TGI,A498 renal,> 100 µM
same,TGI,MCF7 breast,9.04 µM
same,TGI,SK-MEL-2 melanoma,> 100 µM
same,TGI,RPMI-8226 leukemia,5.18 µM
same,TGI,HT29 colon,63.4 µM
same,TGI,HS 578T breast,> 100 µM
same,TGI,EKVX NSCLC,83.3 µM
same,TGI,HOP-92 NSCLC,> 100 µM
same,TGI,OVCAR-4 ovarian,71.3 µM
same,TGI,OVCAR-8 ovarian,> 100 µM
same,TGI,NCI-H23 lung,> 100 µM
same,TGI,MDA-MB-231 breast,> 100 µM
same,TGI,A549 NSCLC,> 100 µM
same,TGI,OVCAR-3 ovarian,49.1 µM
same,TGI,NCI-H522 lung,> 100 µM
same,TGI,HCT-116 colon,36.3 µM
same,TGI,NCI-H226 lung,> 100 µM
same,TGI,HCT-15 colon,61.4 µM
same,TGI,MDA-MB-435,36.2 µM
same,TGI,NCI-H460 lung,> 100 µM
same,TGI,ACHN renal,> 100 µM
same,TGI,NCI/ADR-RES ovarian,> 100 µM
same,TGI,SNB-19 CNS,> 100 µM
same,TGI,MALME-3M melanoma,> 100 µM
same,TGI,SK-OV-3 ovarian,> 100 µM
same,TGI,CAKI-1 renal,10.1 µM
same,TGI,SN12C renal,> 100 µM
same,TGI,SK-MEL-5 melanoma,> 100 µM
same,TGI,SF-268 CNS,> 100 µM
same,TGI,TK-10 renal,70.5 µM
